{"source": "the OligoGym collection", "note": "“And” between values parts separate entries of the source, which are not always exact repeats. Equal values may be shown once. HELM strings list units from the 5' end as sugar, base in round brackets, then linkage (d deoxyribose, r ribose, m 2'-O-methyl, p phosphodiester). Strings are as the collection lists them, not checked against the first reports. ss, as = sense and antisense strand; [una] = unlocked nucleic acid; [fl2r] = 2'-fluoro; further: test system not given here"}
{"details": "siRNA"}
{"substance": "RNA1{r(G)p.r(G)p.r(C)p.r(C)p.r(U)p.r(U)p.r(U)p.r(C)p.r(A)p.r(C)p.r(U)p.r(A)p.r(C)p.r(U)p.r(C)p.r(C)p.r(U)p.r(A)p.r(C)p.d(T)p.d(T)}|RNA2{r(G)p.r(U)p.r(A)p.r(G)p.r(G)p.r(A)p.r(G)p.r(U)p.r(A)p.r(G)p.r(U)p.r(G)p.r(A)p.r(A)p.r(A)p.r(G)p.r(G)p.r(C)p.r(C)p.d(T)p.d(T)}$$$RNA1{StrandType:ss}|RNA2{StrandType:as}$", "target mRNA knockdown": "36%"}
{"substance": "RNA1{r(G)p.r(G)p.r(C)p.r(C)p.r(U)p.r(U)p.r(U)p.r(C)p.r(U)p.r(C)p.r(U)p.r(C)p.m(U)p.r(A)p.r(G)p.r(A)p.m(U)p.r(A)p.r(U)p.r(T)p.r(T)}|RNA2{r(A)p.m(U)p.r(A)p.r(U)p.r(C)p.m(U)p.r(A)p.r(G)p.r(A)p.r(G)p.r(A)p.r(G)p.r(A)p.r(A)p.r(A)p.r(G)p.r(G)p.r(C)p.r(C)p.r(T)p.r(T)}$$$RNA1{StrandType:ss}|RNA2{StrandType:as}$", "target mRNA knockdown": "89%"}
{"substance": "RNA1{r(G)p.r(G)p.r(C)p.r(C)p.r(U)p.r(U)p.r(U)p.r(C)p.r(U)p.r(C)p.r(U)p.r(C)p.r(U)p.r(A)p.r(G)p.r(A)p.r(U)p.r(A)p.r(U)p.r(T)p.r(T)}|RNA2{r(A)p.m(U)p.r(A)p.r(U)p.r(C)p.m(U)p.r(A)p.r(G)p.r(A)p.r(G)p.r(A)p.r(G)p.r(A)p.r(A)p.r(A)p.r(G)p.r(G)p.r(C)p.r(C)p.r(T)p.r(T)}$$$RNA1{StrandType:ss}|RNA2{StrandType:as}$", "target mRNA knockdown": "90%"}
{"substance": "RNA1{r(G)p.r(G)p.r(C)p.r(G)p.r(G)p.r(G)p.r(C)p.r(U)p.r(C)p.r(U)p.r(U)p.r(U)p.r(C)p.r(C)p.m(U)p.r(A)p.r(U)p.r(U)p.r(C)p.r(T)p.r(T)}|RNA2{r(G)p.r(A)p.r(A)p.m(U)p.r(A)p.r(G)p.r(G)p.r(A)p.r(A)p.r(A)p.r(G)p.r(A)p.r(G)p.r(C)p.r(C)p.r(C)p.r(G)p.r(C)p.r(C)p.r(T)p.r(T)}$$$RNA1{StrandType:ss}|RNA2{StrandType:as}$", "target mRNA knockdown": "69%"}
{"substance": "RNA1{r(G)p.r(G)p.r(C)p.r(U)p.[fl2r](U)p.r(A)p.r(G)p.r(U)p.[fl2r](C)p.r(A)p.r(C)p.r(U)p.r(C)p.r(C)p.r(U)p.r(C)p.r(U)p.r(U)p.r(C)p.r(T)p.r(T)}|RNA2{r(G)p.r(A)p.r(A)p.r(G)p.r(A)p.r(G)p.r(G)p.r(A)p.r(G)p.[fl2r](U)p.r(G)p.r(A)p.r(C)p.[fl2r](U)p.r(A)p.r(A)p.r(G)p.r(C)p.r(C)p.r(T)p.r(T)}$$$RNA1{StrandType:ss}|RNA2{StrandType:as}$", "target mRNA knockdown": "68%"}
{"substance": "RNA1{r(G)p.r(G)p.r(C)p.r(U)p.[fl2r](U)p.r(A)p.r(G)p.r(U)p.r(C)p.r(A)p.r(C)p.r(U)p.r(C)p.r(C)p.r(U)p.r(C)p.r(U)p.r(U)p.r(C)p.r(T)p.r(T)}|RNA2{r(G)p.r(A)p.r(A)p.r(G)p.r(A)p.r(G)p.r(G)p.r(A)p.r(G)p.r(U)p.r(G)p.r(A)p.r(C)p.[fl2r](U)p.r(A)p.r(A)p.r(G)p.r(C)p.r(C)p.r(T)p.r(T)}$$$RNA1{StrandType:ss}|RNA2{StrandType:as}$", "target mRNA knockdown": "69%"}
{"substance": "RNA1{r(G)p.r(G)p.r(G)p.r(A)p.r(A)p.r(A)p.[fl2r](C)p.[fl2r](U)p.r(G)p.r(A)p.r(A)p.r(A)p.r(G)p.r(G)p.[fl2r](C)p.[fl2r](U)p.r(A)p.[fl2r](U)p.r(G)p.r(T)p.r(T)}|RNA2{r(C)p.r(A)p.r(U)p.r(A)p.r(G)p.r(C)p.r(C)p.r(U)p.r(U)p.r(U)p.r(C)p.r(A)p.r(G)p.r(U)p.r(U)p.r(U)p.r(C)p.r(C)p.r(C)p.r(T)p.r(T)}$$$RNA1{StrandType:ss}|RNA2{StrandType:as}$", "target mRNA knockdown": "51%"}
{"substance": "RNA1{r(G)p.r(G)p.r(G)p.r(A)p.r(A)p.r(A)p.r(C)p.r(U)p.r(G)p.r(A)p.r(A)p.r(A)p.r(G)p.r(G)p.r(C)p.[fl2r](U)p.r(A)p.r(U)p.r(G)p.r(T)p.r(T)}|RNA2{r(C)p.r(A)p.r(U)p.r(A)p.r(G)p.r(C)p.r(C)p.r(U)p.r(U)p.r(U)p.r(C)p.r(A)p.r(G)p.r(U)p.r(U)p.r(U)p.r(C)p.r(C)p.r(C)p.r(T)p.r(T)}$$$RNA1{StrandType:ss}|RNA2{StrandType:as}$", "target mRNA knockdown": "50%"}
{"substance": "RNA1{r(G)p.r(G)p.r(G)p.r(A)p.r(A)p.r(A)p.r(C)p.r(U)p.r(G)p.r(A)p.r(A)p.r(A)p.r(G)p.r(G)p.r(C)p.r(U)p.r(A)p.r(U)p.r(G)p.r(T)p.r(T)}|RNA2{[fl2r](C)p.r(A)p.[fl2r](U)p.r(A)p.r(G)p.[fl2r](C)p.[fl2r](C)p.[fl2r](U)p.[fl2r](U)p.[fl2r](U)p.[fl2r](C)p.r(A)p.r(G)p.[fl2r](U)p.[fl2r](U)p.[fl2r](U)p.[fl2r](C)p.[fl2r](C)p.[fl2r](C)p.r(T)p.r(T)}$$$RNA1{StrandType:ss}|RNA2{StrandType:as}$", "target mRNA knockdown": "6%"}
{"substance": "RNA1{r(G)p.r(G)p.r(G)p.r(A)p.r(G)p.r(G)p.r(A)p.[fl2r](U)p.[fl2r](G)p.r(A)p.[fl2r](C)p.r(A)p.r(A)p.r(A)p.r(G)p.r(A)p.r(A)p.r(G)p.r(C)p.r(T)p.r(T)}|RNA2{r(G)p.r(C)p.r(U)p.r(U)p.r(C)p.r(U)p.r(U)p.[fl2r](U)p.r(G)p.r(U)p.[fl2r](C)p.r(A)p.r(U)p.r(C)p.r(C)p.r(U)p.r(C)p.r(C)p.r(C)p.r(T)p.r(T)}$$$RNA1{StrandType:ss}|RNA2{StrandType:as}$", "target mRNA knockdown": "78%"}
{"substance": "RNA1{r(G)p.r(G)p.r(G)p.r(A)p.r(G)p.r(G)p.r(A)p.r(U)p.[fl2r](G)p.r(A)p.r(C)p.[fl2r](A)p.r(A)p.r(A)p.r(G)p.r(A)p.r(A)p.r(G)p.r(C)p.r(T)p.r(T)}|RNA2{r(G)p.r(C)p.r(U)p.r(U)p.r(C)p.r(U)p.r(U)p.[fl2r](U)p.r(G)p.r(U)p.r(C)p.r(A)p.r(U)p.r(C)p.r(C)p.r(U)p.r(C)p.r(C)p.r(C)p.r(T)p.r(T)}$$$RNA1{StrandType:ss}|RNA2{StrandType:as}$", "target mRNA knockdown": "84%"}
{"substance": "RNA1{r(G)p.r(G)p.r(G)p.r(A)p.r(G)p.r(G)p.r(A)p.r(U)p.r(G)p.r(A)p.r(C)p.r(A)p.r(A)p.r(A)p.r(G)p.r(A)p.r(A)p.r(G)p.r(C)p.r(T)p.r(T)}|RNA2{r(G)p.[fl2r](C)p.r(U)p.r(U)p.[fl2r](C)p.r(U)p.r(U)p.r(U)p.r(G)p.r(U)p.[fl2r](C)p.r(A)p.r(U)p.[fl2r](C)p.[fl2r](C)p.r(U)p.[fl2r](C)p.[fl2r](C)p.[fl2r](C)p.r(T)p.r(T)}$$$RNA1{StrandType:ss}|RNA2{StrandType:as}$", "target mRNA knockdown": "37%"}
{"substance": "RNA1{r(G)p.r(G)p.r(G)p.r(A)p.r(G)p.r(G)p.r(U)p.r(C)p.r(U)p.m(U)p.r(A)p.r(G)p.r(A)p.r(A)p.r(A)p.r(A)p.r(C)p.r(A)p.r(C)p.r(T)p.r(T)}|RNA2{r(G)p.r(U)p.r(G)p.r(U)p.r(U)p.r(U)p.r(U)p.r(C)p.m(U)p.r(A)p.r(A)p.r(G)p.r(A)p.r(C)p.r(C)p.r(U)p.r(C)p.r(C)p.r(C)p.r(T)p.r(T)}$$$RNA1{StrandType:ss}|RNA2{StrandType:as}$", "target mRNA knockdown": "84%"}
{"substance": "RNA1{r(G)p.r(G)p.r(G)p.r(A)p.r(G)p.r(G)p.r(U)p.r(C)p.r(U)p.r(U)p.r(A)p.r(G)p.r(A)p.r(A)p.r(A)p.r(A)p.r(C)p.r(A)p.r(C)p.r(T)p.r(T)}|RNA2{r(G)p.r(U)p.r(G)p.r(U)p.r(U)p.r(U)p.r(U)p.r(C)p.m(U)p.r(A)p.r(A)p.r(G)p.r(A)p.r(C)p.r(C)p.r(U)p.r(C)p.r(C)p.r(C)p.r(T)p.r(T)}$$$RNA1{StrandType:ss}|RNA2{StrandType:as}$", "target mRNA knockdown": "82%"}
{"substance": "RNA1{r(G)p.r(G)p.r(G)p.r(G)p.r(C)p.r(U)p.r(C)p.r(U)p.r(U)p.r(C)p.m(U)p.r(A)p.r(C)p.r(A)p.m(U)p.r(U)p.r(C)p.r(C)p.r(C)p.r(T)p.r(T)}|RNA2{r(G)p.r(G)p.r(G)p.r(A)p.r(A)p.m(U)p.r(G)p.m(U)p.r(A)p.r(G)p.r(A)p.r(A)p.r(G)p.r(A)p.r(G)p.r(C)p.r(C)p.r(C)p.r(C)p.r(T)p.r(T)}$$$RNA1{StrandType:ss}|RNA2{StrandType:as}$", "target mRNA knockdown": "68%"}
{"substance": "RNA1{r(G)p.r(G)p.r(G)p.r(G)p.r(C)p.r(U)p.r(C)p.r(U)p.r(U)p.r(C)p.r(U)p.m(A)p.r(C)p.r(A)p.r(U)p.r(U)p.r(C)p.r(C)p.r(C)p.r(T)p.r(T)}|RNA2{r(G)p.r(G)p.r(G)p.r(A)p.r(A)p.r(U)p.r(G)p.m(U)p.r(A)p.r(G)p.r(A)p.r(A)p.r(G)p.r(A)p.r(G)p.r(C)p.r(C)p.r(C)p.r(C)p.r(T)p.r(T)}$$$RNA1{StrandType:ss}|RNA2{StrandType:as}$", "target mRNA knockdown": "72%"}
{"substance": "RNA1{r(G)p.r(G)p.r(U)p.r(A)p.r(G)p.r(G)p.r(G)p.r(U)p.r(U)p.r(G)p.r(A)p.r(A)p.r(G)p.r(A)p.r(G)p.r(A)p.r(C)p.r(U)p.r(U)p.r(T)p.r(T)}|RNA2{r(A)p.r(A)p.r(G)p.r(U)p.r(C)p.r(U)p.r(C)p.r(U)p.r(U)p.r(C)p.r(A)p.r(A)p.r(C)p.r(C)p.r(C)p.m(U)p.r(A)p.r(C)p.r(C)p.r(T)p.r(T)}$$$RNA1{StrandType:ss}|RNA2{StrandType:as}$", "target mRNA knockdown": "95%"}
{"substance": "RNA1{r(G)p.r(G)p.r(U)p.r(C)p.r(A)p.r(U)p.r(C)p.r(C)p.r(A)p.r(U)p.r(G)p.r(A)p.r(C)p.r(A)p.r(A)p.r(C)p.r(U)p.r(U)p.r(U)p.d(T)p.d(T)}|RNA2{r(A)p.r(A)p.r(A)p.r(G)p.r(U)p.r(U)p.r(G)p.r(U)p.r(C)p.r(A)p.r(U)p.r(G)p.r(G)p.r(A)p.r(U)p.r(G)p.r(A)p.r(C)p.r(C)p.d(T)p.d(T)}$$$RNA1{StrandType:ss}|RNA2{StrandType:as}$", "target mRNA knockdown": "80% and 94%"}
{"substance": "RNA1{r(G)p.r(U)p.r(A)p.r(U)p.r(C)p.r(C)p.r(G)p.r(A)p.r(A)p.r(G)p.r(A)p.r(C)p.r(G)p.r(A)p.r(A)p.r(G)p.r(C)p.m(U)p.r(A)p.r(T)p.r(T)}|RNA2{m(U)p.r(A)p.r(G)p.r(C)p.r(U)p.r(U)p.r(C)p.r(G)p.r(U)p.r(C)p.r(U)p.r(U)p.r(C)p.r(G)p.r(G)p.r(A)p.m(U)p.r(A)p.r(C)p.r(T)p.r(T)}$$$RNA1{StrandType:ss}|RNA2{StrandType:as}$", "target mRNA knockdown": "95%"}
{"substance": "RNA1{r(G)p.r(U)p.r(A)p.r(U)p.r(G)p.r(A)p.r(C)p.r(C)p.r(G)p.r(A)p.r(C)p.r(U)p.r(A)p.r(C)p.r(G)p.r(C)p.r(G)p.r(U)p.r(A)p.r(T)p.r(T)}|RNA2{r(U)p.[una](U)p.r(C)p.r(A)p.r(G)p.r(U)p.r(G)p.r(U)p.r(G)p.r(A)p.r(U)p.r(G)p.r(A)p.r(C)p.r(A)p.r(C)p.r(U)p.r(U)p.r(G)p.r(T)p.r(T)}$$$RNA1{StrandType:ss}|RNA2{StrandType:as}$", "target mRNA knockdown": "0% and 2%"}
